Source: ChEMBL document CHEMBL1141983, “QSAR of estrogen receptor modulators: exploring selectivity requirements for ER(alpha) versus ER(beta) binding of tetrahydroisoquinoline derivatives using E-state and physicochemical parameters” (Bioorg Med Chem Lett, 2005)

Key:
[1] = biological target: T1, Estrogen receptor (Homo sapiens, UniProt P03372)
T1 sequence (P03372 whole entry): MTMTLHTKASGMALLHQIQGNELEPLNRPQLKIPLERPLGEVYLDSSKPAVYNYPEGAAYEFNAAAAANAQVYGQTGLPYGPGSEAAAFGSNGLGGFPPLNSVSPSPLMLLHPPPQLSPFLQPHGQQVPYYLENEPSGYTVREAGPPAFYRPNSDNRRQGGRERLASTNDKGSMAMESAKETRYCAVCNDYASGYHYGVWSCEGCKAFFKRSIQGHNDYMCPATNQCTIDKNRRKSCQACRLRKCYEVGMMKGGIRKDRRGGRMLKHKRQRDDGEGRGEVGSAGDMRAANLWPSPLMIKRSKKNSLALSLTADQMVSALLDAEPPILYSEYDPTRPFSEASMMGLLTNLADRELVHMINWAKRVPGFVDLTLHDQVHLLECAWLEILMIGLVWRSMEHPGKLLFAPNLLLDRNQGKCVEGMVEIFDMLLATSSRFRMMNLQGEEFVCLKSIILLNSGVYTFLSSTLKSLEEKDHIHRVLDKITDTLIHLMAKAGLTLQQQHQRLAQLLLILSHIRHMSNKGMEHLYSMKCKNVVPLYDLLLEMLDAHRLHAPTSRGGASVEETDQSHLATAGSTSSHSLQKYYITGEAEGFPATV
Description: (§1) Inhibition of transcriptional activation by human estrogen receptor alpha

[2] = biological target: T2, Estrogen receptor beta (Homo sapiens, UniProt Q92731); assay: Inhibition of transcriptional activation by human estrogen receptor beta
[3] = biological target: T2, Estrogen receptor beta; assay: Inhibition of binding to human estrogen receptor beta
[4] = biological target: T1, Estrogen receptor; remark: listed apart in the source
Description: Inhibition of binding to human estrogen receptor alpha

[5] = biological target: T1, Estrogen receptor; remark: listed apart in the source
Description: as §1

T2 sequence (Q92731 whole entry): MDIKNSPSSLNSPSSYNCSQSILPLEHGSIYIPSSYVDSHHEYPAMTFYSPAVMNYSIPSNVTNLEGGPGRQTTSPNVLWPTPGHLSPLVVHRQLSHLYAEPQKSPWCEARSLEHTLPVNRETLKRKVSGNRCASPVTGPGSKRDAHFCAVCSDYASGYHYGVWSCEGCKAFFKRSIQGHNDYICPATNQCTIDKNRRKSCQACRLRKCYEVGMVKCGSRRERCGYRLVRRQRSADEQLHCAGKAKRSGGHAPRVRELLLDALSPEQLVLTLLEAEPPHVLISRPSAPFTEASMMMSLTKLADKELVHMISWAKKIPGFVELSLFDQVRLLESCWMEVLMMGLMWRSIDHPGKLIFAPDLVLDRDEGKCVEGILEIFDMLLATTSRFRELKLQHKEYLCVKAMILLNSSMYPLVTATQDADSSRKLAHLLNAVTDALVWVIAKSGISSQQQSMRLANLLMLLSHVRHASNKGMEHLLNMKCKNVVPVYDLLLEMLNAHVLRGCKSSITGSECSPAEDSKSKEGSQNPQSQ

SMILES	pIC50(uM) [1]	also measured
CC1(c2ccc(OCCN3CCCCC3)cc2)c2ccc(O)cc2CCN1c1cccc(Cl)c1 (stereo not given)	2.347	
CC1(c2ccc(OCCN3CCCCC3)cc2)c2ccc(O)cc2CCN1c1ccc(Cl)cc1 (stereo not given)	2.509	
CC1(c2ccc(OCCN3CCCC3)cc2)c2ccc(O)cc2CCN1c1ccc(F)cc1 (stereo not given)	2.796	
CN(C)c1cccc(N2CCc3cc(O)ccc3C2c2ccc(OCCN3CCCCC3)cc2)c1 (stereo not given)		IC50 [2]: 2180 nM; IC50 [3]: 3.11 µM; IC50 [4]: 71 nM; IC50 [5]: 19.8 nM
CC(C)c1ccc(N2CCc3cc(O)ccc3C2(C)c2ccc(OCCN3CCCC3)cc2)cc1 (stereo not given)	2.585	
CC1(c2ccc(OCCN3CCCCC3)cc2)c2ccc(O)cc2CCN1c1cccc(O)c1 (stereo not given)	3.155	
CC1(c2ccc(OCCN3CCCC3)cc2)c2ccc(O)cc2CCN1c1ccccc1 (stereo not given)	2.745	
CC1(c2ccc(OCCN3CCCCC3)cc2)c2ccc(O)cc2CCN1c1ccccc1 (stereo not given)	2.585	
CC1(c2ccc(OCCN3CCCCCC3)cc2)c2ccc(O)cc2CCN1c1ccccc1 (stereo not given)	2.824	
CC(C)c1ccc(N2CCc3cc(O)ccc3C2(C)c2ccc(OCCN3CCCCC3)cc2)cc1 (stereo not given)	2.284	
CC1(c2ccc(OCCN3CCCC3)cc2)c2ccc(O)cc2CCN1c1cccc(F)c1 (stereo not given)	2.523	
CC1(c2ccc(OCCN3CCCC3)cc2)c2ccc(O)cc2CCN1c1cccc(Cl)c1 (stereo not given)	2.538	
